According to patent US11510886B2, “Metformin amino acid compounds and methods of using the same” (Laboratorios Silancs S.A. DE C.V., priority 2016, dated 2022):
“Also recorded” adds a separate entry of the source. Counter-ions that a name gives are not always drawn. Like-named read-outs stand apart in the source and are kept apart here.

Assays:
C2C12 myotubes = assay: Glucose concentration in C2C12 myotube culture medium; assay type: cell-based, Mice; details: for glucose consumption in normoglycemia: glucose adjusted to 100 mg/100 mL, 10 mM (FIGS. 68A-B)
Protocol: FIG. 67. Hypoglycemic activity ex vivo. Glucose concentration in myocyte culture medium, treated with the control, SLN1, or SLN10. […]. The final glucose concentration in the culture medium was determined with a Glucocard (Arkray). […].
Glucose concentration in culture media was determined with a Glucocard (Arkray). […].
For this purpose, the evolution of glucose uptake was studied in the culture medium of myotubes in response to different molecules studied (FIG. 67).

GPBP and VAPA = assay: Colocalization of GPBP with VAPA in C2C12 cells; assay type: cell-based, Mice; details: C2C12, 10 mM, 16 hours; p=0.0093 Control vs. SLN1, p=0.0001 Control vs. SLN10, p=0.0283 SLN10 vs SLN1
Protocol: FIG. 74A. […] In FIG. 74A, C2C12 cells were differentiated for 3 days in DMEM supplemented with 2% horse serum. […] Subsequently, cells were washed with PBS (3×5 minutes) and incubated with mouse secondary anti-IgG antibodies, conjugated with Alexa Fluor 488, and goat anti-IgG antibodies, conjugated with TRITC (Molecular Probes) for 1 hour at RM in the dark; then, cells were washed again with PBS (3×5 minutes) and mounted for confocal microscopy observation. Afterwards, the images obtained were analyzed with the WCIF ImageJ software to quantify colocalization quotient between GPBP and VAPA. In the third column, the points at which there are similar expression levels of both GPBP and VAPA appear in white.

blood glucose level = assay: Effect of metformin compounds on the glucokinetic profile after oral glucose overload; assay type: in vivo, Rat; details: rat, 750 mg/kg referred to metformin base, mean ± SD; for Blood glucose level, 0.25 h post-glucose overload / Blood glucose level, 1 h post-glucose overload / Blood glucose level, 4 h post-glucose overload / Blood glucose level, pre-glucose overload: *p<0.05 vs vehicle; for Blood glucose level, 3 h post-glucose overload: *p<0.05, **p<0.01 vs vehicle
LKB1 and GPBP = LKB1 and GPBP distribution in C2C12 myotubes (confocal microscopy); assay type: cell-based, Mice; details: 10 mM, 3 hours (FIG. 71)
Protocol: FIG. 71. […] C2C12 cells were differentiated to myotubes for 5 days by incubation in DMEM medium, supplemented with 2% horse serum; […]. Cells were washed with PBS (3×5 minutes) and incubated with antibodies against mouse IgG, conjugated with Alexa Fluor 488, and against goat IgG, conjugated with Alexa Fluor 546 (Molecular Probes) for 1 hour at RM in the dark. In this and in the following Figures showing confocal microscopy of cell cultures, all antibodies used were diluted in blocking solution. After incubation with antibodies, cells were washed with PBS (3×5 minutes) and mounting medium (Dako) in glass slides. Preparations were visualized with confocal microscopy and obtained images were analyzed with the WCIF ImageJ software as to detect colocalization points between GPBP and LKB1. GPBP appears in green, LKB1 in red, and colocalization points indicating similar and corresponding expression levels in both proteins appear in white.

RAW264.7 macrophages [1] = assay: GPBP secretion by RAW264.7 macrophages stimulated with LPS and IFN-γ (ELISA); assay type: cell-based
Protocol: FIG. 91. […]. FIG. 94. […]. In A, an assay scheme is shown; […]. […] In B, the relative expression of IL-10 in RAW264.7 macrophages cultured with conditioned media, obtained as specified in A, is shown. The analysis was carried out by quantitative RT and PCR, using HPRT-1 as a normalizer. In this case, the reference point were cells treated with a conditioned medium in absence of N26 (RQ=1 value), and the increased IL-10 expression was verified; the analysis included non-stimulated cells cultured in a fresh, non-conditioned medium (cells).
[…]; then, they were stimulated with LPS (0.5 μg/mL) and IFN-γ (20 ng/mL) for 16 hours, after which the GPBP concentration in culture media was determined by ELISA.
FIG. 104. […]. RAW264.7 cells (control cells) were treated as indicated (10 mM) for 2 hours and subsequently stimulated with LPS (0.5 μg/mL) and IFN-γ (20 ng/mL) for 16 hours; […].
FIG. 105. […]. then, the GPBP concentration in culture media was determined by ELISA.

RAW264.7 macrophages [2] = assay: IL-10 expression in RAW264.7 macrophages stimulated with LPS and IFN-γ; assay type: cell-based
Protocol: FIG. 92. […]. After several incubation times, cells were processed as shown in FIG. 79 for RT-qPCR analysis, and IL-10 relative quantification (RQ) was determined with a specific probe (Taqman®, Life Technologies) using HPRT-1 as a normalizer and non-stimulated cells as a reference point (time 0). In the Table in FIG. 92, the area under the curve (AUC) is indicated for each of the series.
FIG. 93. The IL-10 expression depends on GPBP-1. […]. […] The silencing efficacy was tested by Western blot with RAW264.7 (WT) and pSi-GPBP-1 cell lysates (50 μg), using specific antibodies (right).
FIG. 94. The IL-10 expression depends on cGPBP-1. In A, an assay scheme is shown; […]. […] In B, the relative expression of IL-10 in RAW264.7 macrophages cultured with conditioned media, obtained as specified in A, is shown. The analysis was carried out by quantitative RT and PCR, using HPRT-1 as a normalizer. In this case, the reference point were cells treated with a conditioned medium in absence of N26 (RQ=1 value), and the increased IL-10 expression was verified; the analysis included non-stimulated cells cultured in a fresh, non-conditioned medium (cells).

[3] = system: rat model of streptozotocin-induced diabetes; assay: Blood glucose levels in rat model of streptozotocin-induced diabetes, 14 days oral; details: mean ± SD; for Blood glucose levels before TI/RI administration, Day −3 (before STZ administration): rats, baseline before STZ and before first TI/RI administration

CN(C)C(=N)N=C(N)N [Metformin hydrochloride, metformin hydrochloride, reference compound]
glucose consumption in normoglycemia (C2C12 myotubes): equally induce glucose consumption | colocalization of GPBP with VAPA (GPBP and VAPA): reduced significantly | Blood glucose level, 0.25 h post-glucose overload (blood glucose level): 93.75 ± 15.78 mg/dL | Blood glucose level, 0.5 h post-glucose overload (blood glucose level): 89.50 ± 9.98 mg/dL | Blood glucose level, 1 h post-glucose overload (blood glucose level): 88.25 ± 10.63 mg/dL | Blood glucose level, 2 h post-glucose overload (blood glucose level): 74.00 ± 10.58 mg/dL | Blood glucose level, 3 h post-glucose overload (blood glucose level): 85.75 ± 7.37 mg/dL | Blood glucose level, 4 h post-glucose overload (blood glucose level): 83.75 ± 7.23 mg/dL | Blood glucose level, 6 h post-glucose overload (blood glucose level): 89.00 ± 11.80 mg/dL | Blood glucose level, pre-glucose overload (blood glucose level): 77.00 ± 8.08 mg/dL | distribution of LKB1-GPBP aggregates (LKB1 and GPBP): moved LKB1-GPBP aggregates from peripheral positions to areas around the nuclei | GPBP secretion (RAW264.7 macrophages [1]; 10 mM, LPS 0.5 μg/mL and IFN-γ 20 ng/mL (FIG. 91)): did not induce significantly the secretion of GPBP | IL-10 expression (RAW264.7 macrophages [2]; 10 mM, LPS and IFN-γ (FIG. 92)): increase IL-10 expression | dependence of IL-10 expression on GPBP expression (RAW264.7 macrophages [2]; pSi-GPBP-1 macrophages (FIG. 93)): virtually GPBP independent | Body weight (g) On administration day (rat, in vivo, 250 mg/kg): 190.39 ± 9.88 g | Body weight (g) On distribution day (rat, in vivo, 250 mg/kg): 186.93 ± 10.39 g | Body weight (g) On distribution day (rat, in vivo, 750 mg/kg): 189.03 ± 15.13 g | Blood glucose levels before TI/RI administration, Day −3 (before STZ administration) [3]: 120.00 ± 8.72 mg/dL

metformin lysinate
glucose consumption in normoglycemia (C2C12 myotubes): equally induce glucose consumption | anti-hyperglycaemic activity (glucose in myotube medium) (C2C12 myotubes; initial glucose 450 mg/100 mL, 10 mM, last 18 hours (FIG. 67), listed as SLN10): greater effect than SLN1; also recorded: higher than that of compound SLN1 | colocalization of GPBP with VAPA (GPBP and VAPA): reduced significantly; also recorded: more intensely than SLN1 | Blood glucose level, 0.25 h post-glucose overload (blood glucose level): 108.33 ± 14.57 mg/dL | Blood glucose level, 0.5 h post-glucose overload (blood glucose level): 101.00 ± 15.13 mg/dL | Blood glucose level, 1 h post-glucose overload (blood glucose level): 106.00 ± 15.72 mg/dL | Blood glucose level, 2 h post-glucose overload (blood glucose level): 94.00 ± 19.47 mg/dL | Blood glucose level, 3 h post-glucose overload (blood glucose level): 84.67 ± 7.09 mg/dL | Blood glucose level, 4 h post-glucose overload (blood glucose level): 89.00 ± 5.29 mg/dL | Blood glucose level, 6 h post-glucose overload (blood glucose level): 98.33 ± 9.07 mg/dL | Blood glucose level, pre-glucose overload (blood glucose level): 93.33 ± 22.48 mg/dL | distribution of LKB1-GPBP aggregates (LKB1 and GPBP; listed as SLN10): seems to induce decolocalization in GPBP and LKB1; also recorded: delocalization of LKB1 and virtual absence of kinase in granular aggregates | GPBP secretion (RAW264.7 macrophages [1]): induces cGPBP secretion; also recorded: induced GPBP secretion strongly | biological activity (GPBP secretion) with equimolar MgCl2 or CaCl2 (RAW264.7 macrophages [1]): reduce the biological activity | cGPBP levels in conditioned medium (RAW264.7 macrophages [1]): approximately 200 ng/mL | IL-10 expression (RAW264.7 macrophages [2]): increase IL-10 expression; also recorded: markedly superior | dependence of IL-10 expression on GPBP expression (RAW264.7 macrophages [2]): depended largely on the GPBP expression | blood glucose level of animal ID93 (750 mg/kg, fifth day, six hours after the glucose overload): 16 mg/dL | Body weight (g) On administration day (Groups B-K, 250 mg/kg, Mean ± SD): 189.83 ± 11.17 g | Body weight (g) On distribution day (Groups B-K, 250 mg/kg, before dosing, Mean ± SD): 184.42 ± 11.94 g | Body weight (g) On distribution day (Groups L-U, 750 mg/kg, before dosing, Mean ± SD): 186.73 ± 8.05 g | Body weight (g) On first administration day (Groups L-U, 750 mg/kg, first column of this head, Mean ± SD): 203.38 ± 13.38 g | Body weight (g) On first administration day (Groups L-U, 750 mg/kg, second column of this head, Mean ± SD): 192.83 ± 9.65 g | mortality and clinical signs (glucokinetic groups, 750 mg/kg for five days, 750 mg/kg): hypothermia, lack of activity and tear excess | mortality and clinical signs (glucokinetic groups, 750 mg/kg for five days, listed as metformin lysinate, 750 mg/kg): severe hypoglycemia | mortality and clinical signs (pharmacokinetic assay, single 250 mg/kg): respiratory noises | Blood glucose levels before TI/RI administration, Day −1 ([3]; STZ-diabetic rats, before first TI/RI administration, n.d. = all values beyond ULOD of glucometer (600 mg/dl), § n=1, ¢ n=2): 577.00^§ ± n.d.^§ mg/dL | Blood glucose levels before TI/RI administration, Day −3 (before STZ administration) [3]: 114.00 ± 6.93 mg/dL
